The values below come from US20240336613A1, “HETEROARYL COMPOUNDS FOR TREATING HUNTINGTON'S DISEASE” (PTC THERAPEUTICS, INC., priority 2021, published 2024).

pIC50: −log10 of the molar value. A value given as a limit tells only on which side of the number the result lay.

The first experiment concerns Huntingtin protein (HTT). As to the kind of experiment: Endogenous Huntingtin Protein Assay (MSD electrochemiluminescence). The experiment is classed as cell-based. To be noted: Cpd 72 compared with Cpd 7 in WO2020/005873. Here is the method: Compounds of Formula (I) were tested using the Meso Scale Discovery (MSD) Assay provided in International Application No. PCT/US2016/066042, filed on Dec. 11, 2016 and claiming priority to United States Provisional Application U.S. 62/265,652 filed on Dec. 10, 2015, the entire contents of which are incorporated herein by reference.
The Endogenous Huntingtin Protein assay used in Example 1 was developed using the ELISA-based MSD electrochemiluminescence assay platform.
Meso Scale Discovery (MSD) 96-well or 384-well plates were coated overnight at 4° C. with MW1 (expanded polyglutamine) or MAB2166 monoclonal antibody (for capture) at a concentration of 1 μg/mL in PBS (30 μL per well). Plates were then washed three times with 300 μL wash buffer (0.05% Tween-20 in PBS) and blocked (100 μL blocking buffer; 5% BSA in PBS) for 4-5 hours at room temperature with rotational shaking and then washed three times with wash buffer.
Samples (25 μL) were transferred to the antibody-coated MSD plate and incubated overnight at 4° C. After removal of the lysates, the plate was washed three times with wash buffer, and 25 μL of #5656S (Cell signaling; rabbit monoclonal) secondary antibody (diluted to 0.25 μg/mL in 0.05% Tween-20 in blocking buffer) was added to each well and incubated with shaking for 1 Hour at room temperature. Following incubation with the secondary antibody, the wells were rinsed with wash buffer after which 25 μL of goat anti-rabbit SULFO TAG secondary detection antibody (required aspect of the MSD system) (diluted to 0.25 μg/mL in 0.05% Tween-20 in blocking buffer) was added to each well and incubated with shaking for 1 hour at room temperature. After rinsing three times with wash buffer, 150 μL of read buffer T with surfactant (MSD) were added to each empty well, and the plate was imaged on a SI 6000 imager (MSD) according to manufacturers' instructions provided for 96- or 384-well plates.
For `CC1(C)CC(n2nnc3cc(-c4ccc(-n5ccnn5)cc4O)nnc32)CC(C)(C)N1` [Cpd 72 in WO2020/005873, reference compound], the “potency comparison, 1H-pyrazole moiety replaced with 1H-1,2,3-triazole moiety” value is recorded as “significant loss in potency”.

Still in this experiment, the particulars now being: Table 1, Endogenous Huntingtin Protein Assay.
Consider `Cc1cn(-c2ccc(-c3cc4ccn([C@H]5CC(C)(C)NC(C)(C)[C@H]5F)c4nn3)c(O)c2)nn1` [Cpd 15, 2-{7-[(3S,4S)-3-fluoro-2,2,6,6-tetramethylpiperidin-4-yl]-7H-pyrrolo[2,3-c]pyridazin-3-yl}-5-(4-methyl-1H-1,2,3-triazol-1-yl)phenol], for which the pIC50 – broadly, −log10 of the IC50, conventionally taken in molar units – is greater than 7.00. Still for that read-out and setting: the same measure for `Cc1cnnn1-c1ccc(-c2cc3ccn([C@H]4CC(C)(C)NC(C)(C)[C@H]4F)c3nn2)c(O)c1` [Cpd 17, 2-{7-[(3S,4S)-3-fluoro-2,2,6,6-tetramethylpiperidin-4-yl]-7H-pyrrolo[2,3-c]pyridazin-3-yl}-5-(5-methyl-1H-1,2,3-triazol-1-yl)phenol]: 6.30 to 7.00; for `Cc1cn(-c2ccc(-c3cc4ccn([C@H]5CCNC6(CC6)C5)c4nn3)c(O)c2)nn1` [Cpd 16, 2-{7-[(7S)-4-azaspiro[2.5]octan-7-yl]-7H-pyrrolo[2,3-c]pyridazin-3-yl}-5-(4-methyl-1H-1,2,3-triazol-1-yl)phenol]: greater than 7.00. `CC1(C)C[C@H](n2ccc3cc(-c4ccc(-n5cc(Cl)nn5)cc4O)nnc32)[C@H](F)C(C)(C)N1` [Cpd 19, 5-(4-chloro-1H-1,2,3-triazol-1-yl)-2-{7-[(3S,4S)-3-fluoro-2,2,6,6-tetramethylpiperidin-4-yl]-7H-pyrrolo[2,3-c]pyridazin-3-yl}phenol]: the negative logarithm of the IC50 (pIC50) is greater than 7.00.

Staying with this experiment, now noted: Table 1, Endogenous Huntingtin Protein Assay; read-out: IC50.
As for `CC1(C)C[C@H](n2ccc3cc(-c4ccc(-n5ccnn5)cc4O)nnc32)[C@H](F)C(C)(C)N1` [Cpd 8], the pIC50 is greater than 7.00.

On to “2-{7-[(8R,9R)-9-fluoro-5-azaspiro[3.5]nonan-8-yl]-7H-pyrrolo[2,3-c]pyridazin-3-yl}-5-(1H-1,2,3-triazol-1-yl)phenol and 2-{7-[(8S,9S)-9-fluoro-5-azaspiro[3.5]nonan-8-yl]-7H-pyrrolo[2,3-c]pyridazin-3-yl}-5-(1H-1,2,3-triazol-1-yl)phenol [Cpd 23]”, for which the pIC50 is greater than 7.00. In the case of `CN1CCC(n2ccc3cc(-c4ccc(-n5ccnn5)cc4O)nnc32)CC12CC2` (stereo not drawn) [Cpd 7, 2-[7-(4-methyl-4-azaspiro[2.5]octan-7-yl)-7H-pyrrolo[2,3-c]pyridazin-3-yl]-5-(1H-1,2,3-triazol-1-yl)phenol], the negative-log IC50 (pIC50) is greater than 7.00.

Turning to `Cc1cnnn1-c1ccc(-c2cc3ccn([C@H]4CCNC5(CC5)C4)c3nn2)c(O)c1` [Cpd 18, 2-{7-[(7S)-4-azaspiro[2.5]octan-7-yl]-7H-pyrrolo[2,3-c]pyridazin-3-yl}-5-(5-methyl-1H-1,2,3-triazol-1-yl)phenol], the pIC50 is 6.00 to 6.30. Still for that read-out and setting: the same measure for “2-{7-[(3R,4S)-3-fluoro-2,2,6,6-tetramethylpiperidin-4-yl]-7H-pyrrolo[2,3-c]pyridazin-3-yl}-5-(1H-1,2,3-triazol-1-yl)phenol and 2-{7-[(3S,4R)-3-fluoro-2,2,6,6-tetramethylpiperidin-4-yl]-7H-pyrrolo[2,3-c]pyridazin-3-yl}-5-(1H-1,2,3-triazol-1-yl)phenol [Cpd 3]”: greater than 7.00; for “2-{7-[(1S,2R,3R,5R)-2-fluoro-1,5-dimethyl-8-azabicyclo[3.2.1]octan-3-yl]-7H-pyrrolo[2,3-c]pyridazin-3-yl}-5-(1H-1,2,3-triazol-1-yl)phenol and 2-{7-[(1R,2S,3S,5S)-2-fluoro-1,5-dimethyl-8-azabicyclo[3.2.1]octan-3-yl]-7H-pyrrolo[2,3-c]pyridazin-3-yl}-5-(1H-1,2,3-triazol-1-yl)phenol [Cpd 21]”: greater than 7.00; for `CC1(C)CC(n2ccc3cc(-c4ccc(-n5ccnn5)cc4O)nnc32)CC(C)(C)N1` [Cpd 1, 2-[7-(2,2,6,6-tetramethylpiperidin-4-yl)-7H-pyrrolo[2,3-c]pyridazin-3-yl]-5-(1H-1,2,3-triazol-1-yl)phenol]: greater than 7.00. Consider “5-(1H-1,2,3-triazol-1-yl)-2-{7-[(4RS)-1,2,2-trimethylpiperidin-4-yl]-7H-pyrrolo[2,3-c]pyridazin-3-yl}phenol [Cpd 6]”, for which the negative-log IC50 (pIC50) is 6.00 to 6.30. On the same count and under the same terms, the same measure for `Oc1cc(-n2ccnn2)ccc1-c1cc2ccn([C@H]3CCNC4(CC4)C3)c2nn1` [Cpd 13, 2-{7-[(7S)-4-azaspiro[2.5]octan-7-yl]-7H-pyrrolo[2,3-c]pyridazin-3-yl}-5-(1H-1,2,3-triazol-1-yl)phenol]: greater than 7.00; for “2-{7-[(4S,5R)-5-fluoro-2,2-dimethylpiperidin-4-yl]-7H-pyrrolo[2,3-c]pyridazin-3-yl}-5-(1H-1,2,3-triazol-1-yl)phenol and 2-{7-[(4R,5S)-5-fluoro-2,2-dimethylpiperidin-4-yl]-7H-pyrrolo[2,3-c]pyridazin-3-yl}-5-(1H-1,2,3-triazol-1-yl)phenol [Cpd 12]”: greater than 7.00; for `Oc1cc(-n2ccnn2)ccc1-c1cc2ccn(C3CCNC4(CC4)C3)c2nn1` (stereo not drawn) [Cpd 4, 2-[7-(4-azaspiro[2.5]octan-7-yl)-7H-pyrrolo[2,3-c]pyridazin-3-yl]-5-(1H-1,2,3-triazol-1-yl)phenol]: greater than 7.00. For “2-{7-[(3S,4S)-3-fluoro-2,2,6,6-tetramethylpiperidin-4-yl]-7H-pyrrolo[2,3-c]pyridazin-3-yl}-5-(1H-1,2,3-triazol-1-yl)phenol and 2-{7-[(3R,4R)-3-fluoro-2,2,6,6-tetramethylpiperidin-4-yl]-7H-pyrrolo[2,3-c]pyridazin-3-yl}-5-(1H-1,2,3-triazol-1-yl)phenol [Cpd 2]”, the pIC50 was greater than 7.00. Same read-out and setting: the same measure for “2-{7-[(1S,2S,3R,5R)-2-fluoro-8-azabicyclo[3.2.1]octan-3-yl]-7H-pyrrolo[2,3-c]pyridazin-3-yl}-5-(1H-1,2,3-triazol-1-yl)phenol and 2-{7-[(1R,2R,3S,5S)-2-fluoro-8-azabicyclo[3.2.1]octan-3-yl]-7H-pyrrolo[2,3-c]pyridazin-3-yl}-5-(1H-1,2,3-triazol-1-yl)phenol [Cpd 20]”: greater than 7.00; for `CC1(C)C[C@H](n2ccc3cc(-c4cc(F)c(-n5ccnn5)cc4O)nnc32)[C@H](F)C(C)(C)N1` [Cpd 26, 4-fluoro-2-{7-[(3S,4S)-3-fluoro-2,2,6,6-tetramethylpiperidin-4-yl]-7H-pyrrolo[2,3-c]pyridazin-3-yl}-5-(1H-1,2,3-triazol-1-yl)pheno]: greater than 7.00.

For the molecule `Cc1cc2cc(-c3ccc(-n4ccnn4)cc3O)nnc2n1C1CCNC2(CC2)C1` (stereo not drawn) [Cpd 9, 2-[7-(4-azaspiro[2.5]octan-7-yl)-6-methyl-7H-pyrrolo[2,3-c]pyridazin-3-yl]-5-(1H-1,2,3-triazol-1-yl)phenol], the negative-log IC50 (pIC50) is 6.30 to 7.00. `CC1(C)C[C@H](n2ccc3cc(-c4ccc(-n5ccnn5)cc4O)nnc32)[C@H](F)CN1` [Cpd 22, 2-{7-[(4S,5R)-5-fluoro-2,2-dimethylpiperidin-4-yl]-7H-pyrrolo[2,3-c]pyridazin-3-yl}-5-(1H-1,2,3-triazol-1-yl)phenol]: the negative-log IC50 (pIC50) is greater than 7.00. On the same count and under the same terms, the same measure for “2-{7-[(8S,9R)-8-fluoro-6-azaspiro[4.5]decan-9-yl]-7H-pyrrolo[2,3-c]pyridazin-3-yl}-5-(1H-1,2,3-triazol-1-yl)phenol and 2-{7-[(8R,9S)-8-fluoro-6-azaspiro[4.5]decan-9-yl]-7H-pyrrolo[2,3-c]pyridazin-3-yl}-5-(1H-1,2,3-triazol-1-yl)phenol [Cpd 25]”: 6.30 to 7.00. Same read-out and setting: the same measure for `Oc1cc(-n2ccnn2)ccc1-c1cc2ccn(C3CC4(CC4)NC4(CC4)C3)c2nn1` (stereo not drawn) [Cpd 24, 2-[7-(4-azadispiro[2.1.2^5.3^3]decan-9-yl)-7H-pyrrolo[2,3-c]pyridazin-3-yl]-5-(1H-1,2,3-triazol-1-yl)phenol]: greater than 7.00; for `Oc1cc(-n2ccnn2)ccc1-c1cc2ccn([C@@H]3CCNC4(CC4)C3)c2nn1` [Cpd 11, 2-{7-[(7R)-4-azaspiro[2.5]octan-7-yl]-7H-pyrrolo[2,3-c]pyridazin-3-yl}-5-(1H-1,2,3-triazol-1-yl)phenol]: greater than 7.00.

Still in this experiment, the particulars now being: Table 2, comparison compounds tested according to the assay of Example 1; read-out: IC50.
`CC1(C)CC(n2ccc3cc(-c4ccc(-c5cn[nH]c5)cc4O)nnc32)CC(C)(C)N1` [Cpd 26 in WO2020/005873, reference compound]: the pIC50 is 8.15. In the case of `CC1(C)CC(n2nnc3cc(-c4ccc(-n5ccnn5)cc4O)nnc32)CC(C)(C)N1` [Cpd 72 in WO2020/005873, reference compound], the negative-log IC50 (pIC50) is 6.75. On the same count and under the same terms, the same measure for `CC1(C)CC(n2ccc3cc(-c4ccc(-n5ccnn5)cc4O)nnc32)CC(C)(C)N1` [Cpd 1, 2-[7-(2,2,6,6-tetramethylpiperidin-4-yl)-7H-pyrrolo[2,3-c]pyridazin-3-yl]-5-(1H-1,2,3-triazol-1-yl)phenol]: 9.10.

`CC1(C)CC(n2nnc3cc(-c4ccc(-c5cn[nH]c5)cc4O)nnc32)CC(C)(C)N1` [Cpd 7 in WO2020/005873, reference compound]: the negative-log IC50 (pIC50) was 8.19.

Staying with this experiment, now noted: compared with Cpd 26 in WO2020/005873 (1H-pyrazole replaced with 1H-1,2,3-triazole).
On to `CC1(C)CC(n2ccc3cc(-c4ccc(-n5ccnn5)cc4O)nnc32)CC(C)(C)N1` [Cpd 1, 2-[7-(2,2,6,6-tetramethylpiperidin-4-yl)-7H-pyrrolo[2,3-c]pyridazin-3-yl]-5-(1H-1,2,3-triazol-1-yl)phenol], for which the improvement in potency entry is reported as “over 8 fold”.

Still in this experiment, the particulars now being: compared with Cpd 72 in WO2020/005873 (3H-[1,2,3]-triazolo[4,5-c]pyridazine core).
For the molecule `CC1(C)CC(n2ccc3cc(-c4ccc(-n5ccnn5)cc4O)nnc32)CC(C)(C)N1` [Cpd 1, 2-[7-(2,2,6,6-tetramethylpiperidin-4-yl)-7H-pyrrolo[2,3-c]pyridazin-3-yl]-5-(1H-1,2,3-triazol-1-yl)phenol], the improvement in potency is reported as 223 fold.
